Results as given in patent publication US20050203063A1, “Proteasome pathway inhibitors and related methods” (priority 2003, published 2005).
Where two headings read alike, the source gives them in different places. Where a SMILES comes first, the peptide text is derived from it. The star is where a group is joined. Cbz = O=C(OCc1ccccc1)*

Columns and labels:
Format in all cases: biochemical
[1] = test system: cyclin-luciferase (cyc-luc) turnover, APC/C activation; test: cyc-luc turnover in interphase Xenopus extracts induced to enter mitosis by non-degradable cyclin B
Description: (§1) FIG. 1. Functional classification of inhibitors. Compounds that scored in the initial screen were reacquired as dry powders and retested in Xenopus extracts in 4 assays at 200 μM concentration (32) as described (6). […] (A) Compounds and cyclin-luciferase were added to interphase extracts, which were then induced to enter mitosis by addition of non-degradable cyclin B. Percent inhibition of cyc-luc turnover by each compound is coded according to the grayscale shown at the bottom of the figure; specific values are available in Table 1. (B) Extracts were pre-treated with non-degradable cyclin B to allow entry into mitosis prior to addition of test compound and reporter protein. (C) Interphase extracts were treated by addition of recombinant Cdh1 to activate cyc-luc turnover. (D) Interphase extracts were treated with recombinant axin to induce turnover of β-catenin-luciferase.
(§2) The “Cmpd” column corresponds to the numbers used in FIG. 1; “Class” refers to the class of inhibitor described in FIG. 1 and the text. Columns A-D show percent inhibition in the four assays described in FIG. 1. (A) Interphase extracts (B) Mitotic extracts (C) Interphase extracts stimulated with Cdh1 (D) Degradation of a β-catenin reporter protein in interphase extracts stimulated with recombinant axin. […] “ID#” refers to the identification number of the inhibitor obtained from the NCI (prefaced by NSC) or Chembridge (prefaced by C).
Extracts were rapidly thawed and diluted to a final concentration of 75% in extract buffer (XB) just prior to assay (XB; 100 mM KCl, 0.1 mM CaCl2, 1 mM MgCl2, 10 mM potassium HEPES, pH 7.7, 50 mM sucrose). Extracts were kept on ice and supplemented with 1 mg/ml bovine ubiquitin (Sigma) unless otherwise stated. Cyc-luc expressed in reticulocyte lysate was diluted 1/200 for most assays. High-throughput screening utilized the bacterially expressed and purified cyclin-luc fusion protein, which was added to extracts at a final concentration of 0.1 μg/ml. To induce entrance into mitosis, cyclin BΔ90 protein was added to a final concentration of 10 μg/ml. For the dose response analysis, inhibitors were purchased from Calbiochem (San Diego, Calif.) and dissolved in DMSO as 10 mM stocks. Cyclin-luciferase and cyclin BΔ90 were mixed with interphase extract and placed on ice. Inhibitors were then added to extracts to yield a final DMSO concentration of 1%. 10 μl aliquots of extract were distributed into 384-well white Cliniplates (Labsystems), and cell cycle progression was initiated by warming the samples to room temperature. After 60 minutes, 30 μl of luciferin reagent (20 mM tricine pH 7.8, 470 μM D-Luciferin [Molecular Probes]), 270 μM Coenzyme A, 0.1 mM EDTA, 33 mM DTT, and 530 μM ATP) was added using a multidrop dispenser (Labsystems). Luminescence was measured on an Analyst plate reader (LJL Biosystems). The values for 3 replicates were averaged. For the dose response analysis, percent inhibition was calculated as 100*(T−M)/(I−M) where T equals the test value for the inhibitor, M equals the value in a mitotic extract lacking inhibitor, and I equals the value in an interphase extract. For certain experiments, methylated ubiquitin was added to interphase extracts at a concentration of 1 mg/ml in the presence or absence of added unmodified ubiquitin (1 mg/ml) used as competitor. Cyclin-luciferase and cyclin BΔ90 were then added. After 60 minutes, the reactions were stopped and analyzed as described above.
Dry compounds were redissolved at 20 mM concentration in DMSO, or a 50:50 water:DMSO mixture in certain cases. These compounds were then diluted ten-fold in XB and mixed thoroughly. For the assay in FIG. 1A, chilled interphase extract was mixed with cyclin BΔ90 (10 μg/ml) and cyc-luc (0.1 μg/ml) in bulk and then 27 μl of extract was pipetted to each well of a chilled 384-well plate.

[2] = test system: cyclin-luciferase (cyc-luc) turnover, activated APC/C; test: cyc-luc turnover in mitotic Xenopus extracts (pre-treated with non-degradable cyclin B)
Description: as §1, §2
(§3) Dry compounds were redissolved at 20 mM concentration in DMSO, or a 50:50 water:DMSO mixture in certain cases. These compounds were then diluted ten-fold in XB and mixed thoroughly. For the assay in FIG. 1A, chilled interphase extract was mixed with cyclin BΔ90 (10 μg/ml) and cyc-luc (0.1 μg/ml) in bulk and then 27 μl of extract was pipetted to each well of a chilled 384-well plate. Three microliters of each compound (diluted in XB) was then added to each well, and then compounds mixed thoroughly. Plates were warmed to room temperature. After 70 minutes, 5 μl aliquots were transferred to another plate, and then 30 μl of luciferin reagent was added to each well and luminescence measured. Percent inhibition was calculated as described above. The reported values represent the average of three independent measurments. For the assay in FIG. 1B, interphase extracts were treated with 10 μg/cyclin B 90 for 50 minutes at room temperature and then chilled on ice. Cyc-luc was then added, and then 27 μl of extract was pipetted to each well of a chilled 384-well plate. Three microliters of each compound (diluted in XB) was then added to each well, and then compounds mixed thoroughly. Plates were warmed to room temperature. After 60 minutes, 5 μl aliquots were transferred to another plate, and then 30 μl of luciferin reagent was added to each well and luminescence measured. For the assay in FIG. 1C, recombinant Cdh1 (0.1 μg/ml) and cyc-luc were added to chilled interphase extracts. Extracts were then pipetted and compounds added as above. Plates were warmed to room temperature and incubated for three hours, following which luminescence was measured as above. For the assay in FIG. 1D, chilled interphase extracts received recombinant axin and beta-catenin-luciferase reporter as described (8). Extracts were aliquoted to chilled plates and compounds distributed as described above. Plates were warmed to room temperature, incubated for three hours, and luminescence measured.

[3] = test system: Cdh1-stimulated cyc-luc proteolysis (APC/C); test: cyc-luc turnover in interphase Xenopus extracts stimulated with recombinant Cdh1
Description: as §1, §2, §3

[4] = test system: β-catenin-luciferase turnover (substrate of the SCFβ-TRCP ubiquitin ligase); test: β-catenin-luciferase turnover in interphase Xenopus extracts stimulated with recombinant axin
Description: as §1, §2, §3

[5] = 200 μM compound, added to interphase extracts then induced to enter mitosis, average of three measurements
[6] = 200 μM compound, extracts in mitosis before addition of compound
[7] = 200 μM compound, negative values reflect stimulation of proteolysis

Row | SMILES | percent inhibition of cyc-luc turnover, (A) Interphase extracts [1, 5] | percent inhibition of cyc-luc turnover, (B) Mitotic extracts [2, 6] | percent inhibition of cyc-luc turnover, (C) Interphase extracts stimulated with Cdh1 [3, 7] | percent inhibition, (D) Degradation of a β-catenin reporter protein in interphase extracts stimulated with recombinant axin ([4]; 200 μM compound) | further results
1 | O=C1c2ccccc2C2=NNC3=C(S(=O)(=O)O)C=CC1C23 (stereo not drawn) [Compound 10] | 33% | 0% | −4% | 21% | 
2 | O=C(NNC(=S)NC(=O)C12CC3CC(CC(C3)C1)C2)c1ccncc1 [Compound 13] | 75% | 0% | −9% | 0% | 
3 | O=S(=O)(O)c1ccc2c(/N=N/c3ccccc3)c(O)ccc2c1 [Compound 18] | 73% | 4% | −7% | 0% | 
4 | Nc1ncnc(Nc2ccc(S(N)(=O)=O)cc2)n1 [Compound 25] | 66% | 3% | −6% | 0% | 
5 | Nc1ncnc2c1ncn2C1OC2COP(=O)(O)OC2C1O (stereo not drawn) [Compound 34] |  |  |  |  | percent inhibition of cyc-luc turnover, (A) Interphase extracts ([1]; 200 µM): 100%; percent inhibition of cyc-luc turnover, (B) Mitotic extracts ([2]; 200 µM): 0%; percent inhibition of cyc-luc turnover, (C) Interphase extracts stimulated with Cdh1 ([3]; 200 µM): −8%; percent inhibition, (D) Degradation of a β-catenin reporter protein in interphase extracts stimulated with recombinant axin ([4]; 200 µM): 6%
6 | Nc1ncnc2c1c(Cl)cn2[C@@H]1O[C@H](CO)[C@@H](O)[C@H]1O [Compound 39] | 100% | 9% | −7% | 67% | 
7 | ON=c1[nH]cnc2[nH]cc(Br)c12 [Compound 40] | 42% | 0% | −6% | 3% | 
8 | N#Cc1c(NN)n(C2OC(CO)C(O)C2O)c2ncnc(N)c12 (stereo not drawn) [Compound 51] | 100% | 0% | 0% | 30% | 
9 | CC(=O)Nc1ncnc2[nH]ncc12 [Compound 54] | 54% | 3% | −6% | 0% | 
10 | Nc1nc2c(c(=O)[nH]1)c1c(N)ncnc1n2C1OC(CO)C(O)C1O (stereo not drawn) [Compound 57] | 100% | 4% | 0% | 60% | 
11 | O[Si](c1ccccc1)(c1ccccc1)c1ccccc1.O[Si](c1ccccc1)(c1ccccc1)c1ccccc1.O[Si](c1ccccc1)(c1ccccc1)c1ccccc1.[O]=[V] [Compound 61] | 77% | 8% | −8% | 2% | 
12 | O=c1[nH]c(O)nc2cc3[nH]ncc3cc12 [Compound 62] | 84% | 0% | −8% | 0% | 
13 | O=c1[nH]cnc2c1ccc1[nH]ncc12 [Compound 67] | 53% | 3% | −8% | 3% | 
14 | O/N=C(/C=N/O)SCCSC(/C=N/O)=N/O [Compound 77] | 100% | 4% | −12% | 0% | 
15 | NC(=O)c1ncn(C2OC(CO)C(O)C2O)c1C(N)=O (stereo not drawn) [Compound 82] | 100% | 0% | 0% | 0% | 
16 | CC(C)C[C@@H](C=O)NC(=O)[C@H](CC(C)C)NC(=O)[C@H](CC(C)C)NC(=O)OCc1ccccc1 [MG132, reference compound] (Cbz-Leu-Leu-Leu-aldehyde) |  |  |  |  | effect on loss of cyc-luc activity / activation of latent APC/C activity (in words) ([1]; assay validation, inhibitor added to interphase extract before mitotic entry): partially inhibited
17 | CC[C@H](CO)Nc1nc(NCc2ccccc2)c2ncn(C(C)C)c2n1 [roscovitine, reference compound] |  |  |  |  | effect on loss of cyc-luc activity / activation of latent APC/C activity (in words) [1]: blocked; effect on cyc-luc proteolysis in mitotic extracts (in words) [2]: ineffective
